# From publication PMC2992884 (Cell metabolism, 2010)
# Target: T1, ACS-3 (Caenorhabditis elegans, UniProt O44560)
# T1 sequence (O44560 1-653): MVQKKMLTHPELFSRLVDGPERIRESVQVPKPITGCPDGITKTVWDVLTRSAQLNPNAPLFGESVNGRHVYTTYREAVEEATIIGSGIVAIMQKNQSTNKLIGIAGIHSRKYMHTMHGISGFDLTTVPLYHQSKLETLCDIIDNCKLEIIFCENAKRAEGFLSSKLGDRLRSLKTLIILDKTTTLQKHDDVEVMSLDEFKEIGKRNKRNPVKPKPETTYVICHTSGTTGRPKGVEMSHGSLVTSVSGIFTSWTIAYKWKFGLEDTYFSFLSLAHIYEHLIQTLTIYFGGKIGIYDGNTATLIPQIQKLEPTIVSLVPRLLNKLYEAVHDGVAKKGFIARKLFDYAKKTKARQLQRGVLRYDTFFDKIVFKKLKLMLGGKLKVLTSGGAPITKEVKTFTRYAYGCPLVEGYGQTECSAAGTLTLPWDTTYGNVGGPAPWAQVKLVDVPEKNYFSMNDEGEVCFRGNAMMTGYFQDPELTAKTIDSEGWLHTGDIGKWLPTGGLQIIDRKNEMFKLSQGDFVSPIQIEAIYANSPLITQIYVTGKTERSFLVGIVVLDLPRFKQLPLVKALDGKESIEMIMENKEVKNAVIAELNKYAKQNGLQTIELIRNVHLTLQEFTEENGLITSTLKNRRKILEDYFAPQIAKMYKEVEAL
# Experiment: acyl-CoA oxidase/catalase coupled colorimetric assay, […] nm
# Type: biochemical
# Conditions: with free long-chain fatty acid (18-carbon preferred)
smiles,measurement,value
CC(C)(COP(=O)(O)OP(=O)(O)OC[C@H]1O[C@@H](n2cnc3c(N)ncnc32)[C@H](O)[C@@H]1OP(=O)(O)O)[C@@H](O)C(=O)NCCC(=O)NCCS [CoA],"acyl-CoA oxidase/catalase coupled colorimetric assay, 550 nm",ACS activity generates acyl-CoA species from free fatty acid and CoA
